Columns and labels:
[1] = test system: acute inflammation of mice ear caused by dimethylbenzene; experiment: Mice ear inflammation caused by dimethylbenzene; type: in vivo, Kunming mice; details: for Difference (mg) between left and right ear: 4 days, 2 h after dimethylbenzene, n=10
Experimental: Experimental animal: Kunming mice, body weight 18-22 g.
Method of administration: intraperitoneal injection. The doses of wedelolactone were 12.5 mg/kg and 25 mg/kg, respectively; the negative control used 0.5% CMC; the positive control used ibuprofen (25 mg/kg).
Method of experiment: The animals were divided randomly into 4 groups based on their body weights, 10 mice each group. The mice were administered with the test compound for 4 continuous days. On Day 4, both sides of the right ears of the mice were daubed evenly with 50 μl dimethylbenzene 2 hours after the administration. The left ears were not treated. The mice were left for 2 hours and then sacrificed by cervical dislocation. The ear specimens were obtained by punching both ears with a 8 mm hole-puncher. The specimens were weighed and the differences between the left and the right ears were used to evaluate the effect of the compound on the inflammation.

[2] = test system: adjuvant-induced arthritis of rats; experiment: Adjuvant-induced arthritis of rats; type: in vivo, Male Wistar rats; details: for Left front paw thickness, Day 5 / Right front paw thickness, Day 5 / Right hind paw thickness, Day 5 / Right hind paw volume, Day 5 / Left hind paw thickness, Day 5 / Left hind paw volume, Day 5: day 5 after administration; for Left hind paw thickness, Day 5 / Left hind paw volume, Day 5 / Left hind paw thickness, Day 10 / Left hind paw volume, Day 10 / Left hind paw thickness, Day 15 / Left hind paw volume, Day 15 / Left hind paw thickness, Day 19 / Left hind paw volume, Day 19: adjuvant-injected paw; for Left front paw thickness, Day 10 / Right front paw thickness, Day 10 / Right hind paw thickness, Day 10 / Right hind paw volume, Day 10 / Left hind paw thickness, Day 10 / Left hind paw volume, Day 10: day 10 after administration; for Left front paw thickness, Day 15 / Right front paw thickness, Day 15 / Right hind paw thickness, Day 15 / Right hind paw volume, Day 15 / Left hind paw thickness, Day 15 / Left hind paw volume, Day 15: day 15 after administration; for Left front paw thickness, Day 19 / Right front paw thickness, Day 19 / Right hind paw thickness, Day 19 / Right hind paw volume, Day 19 / Left hind paw thickness, Day 19 / Left hind paw volume, Day 19: day 19 after administration
Experimental: Experimental animal: Male Wistar rats. Body weights were about 150 g.
Method of administration: intraperitoneal injection. The dose of wedelolactone was 0.25 mg/kg or 12.5 mg/kg, prepared in 0.5% CMC. The dose of methotrexate (MTX) is 0.2 mg/kg.
Method of experiment: The animals were divided randomly into 4 groups based on their body weights. They were adapted for 3 days before experiments. The left hind planta of the rats were injected subcutaneously with 0.1 ml CFA emulsion to induce inflammation. On the Day 10, after the administration of the adjuvant, the rats were injected intraperitoneally with 5 ml/kg test compound wedelolactone for 19 continuous days. On and after the day of administration of the adjuvant, the change of thickness of the four rat paws was measured daily using a vernier caliper, and the volume of the back paw were measured using a Plethysmometer. The data from day 5, 10, 15, and 19 after administration were used for statistic analyses.

[3] = test system: collagen-induced rat arthritis; experiment: Collagen-induced rat arthritis (joint surface temperature, inflammation score); type: in vivo, Male Wistar rats; details: for inflammation score, Day 10 / inflammation score, Day 20 / inflammation score, Day 30: highest total score 16 points; for Joint surface temperature difference (° C.), Day 10: day 10 after first immunization; for Joint surface temperature difference (° C.), Day 20: day 20 after first immunization; for Joint surface temperature difference (° C.), Day 30: day 30 after first immunization
Experimental: (§1) Experimental animal: Male Wistar rats. Body weights were about 120 g.
(§2) Administration method: intraperitoneal injection. The dose of wedelolactone is 6 or 12 mg/kg. Negative control used 0.5% CMC.
Experimental methods: 1). Preparation of type-II collagen. The fresh calf cartilages were ground at 4° C., immersed and washed with Tris-HCL2. The left residue was digested with pepsin. The supernatant was collected and salted out, followed by chromatography with DE-52 column to obtain type-II collagen. The collagen were dissolved in glacial acetic acid and mixed with Freund's adjuvant by grounding. Each of the animals, except the controls, was subcutaneously injected with a total of 2.5 mg/kg collagen at multiple sites of the tail root and back neck. 7 days thereafter, the animals were boostered by subcutaneous administration with 1.0 mg/kg collagen in the tail root and back neck. The immunized animals were divided randomly into 4 groups based on their body weight, 10 mice in each group. The four groups were modeling blank group, modeling control group, low dose wedelolactone group, and high dose wedelolactone group. The daily administration started at day 10 after the first immunization for 3 weeks continuously. The effects of the drug on the rat rheumatoid arthritis and the delayed-hypersensitivity were recorded. Starting from day 10 after the first immunization, the following data were recorded every 10 days: A) arthritis surface temperature (the surface temperature of both hind leg joints were measured by using a digital temperature recorder, and the temperature differences before and after the immunization was calculated). B) arthritis score (arthritis was scored following the method described in the literature. 1 point: inflammation in one area of paws or planta; 2 points: inflammation in more than two areas of paws or planta; 3 points: mild inflammation in the whole legs; 4 points: severe inflammation causing joint rigidity, deformation and dysfunction. The highest score for each paw is 4 points. The highest total score for each rat is 16 points. C) Delayed-hypersensitivity measurement. At day 24, 10 μl type II collagen containing solution was injected subcutaneously in the back of the right ear of each rat. The thickness of the ear before and 48 hr after the injection was measured.

[4] = test system: delayed hypersensitivity of the collagen II-induced arthritic rats; experiment: Delayed hypersensitivity of collagen II-induced arthritic rats; type: in vivo, Male Wistar rats; details: 48 hr after type II collagen injection
Experimental: as §1, §2
Experimental methods: 1). Preparation of type-II collagen. The fresh calf cartilages were ground at 4° C., immersed and washed with Tris-HCL2. The left residue was digested with pepsin. The supernatant was collected and salted out, followed by chromatography with DE-52 column to obtain type-II collagen. The collagen were dissolved in glacial acetic acid and mixed with Freund's adjuvant by grounding. Each of the animals, except the controls, was subcutaneously injected with a total of 2.5 mg/kg collagen at multiple sites of the tail root and back neck. […] The effects of the drug on the rat rheumatoid arthritis and the delayed-hypersensitivity were recorded. Starting from day 10 after the first immunization, the following data were recorded every 10 days: A) arthritis surface temperature (the surface temperature of both hind leg joints were measured by using a digital temperature recorder, and the temperature differences before and after the immunization was calculated). B) arthritis score (arthritis was scored following the method described in the literature. […] The thickness of the ear before and 48 hr after the injection was measured.

COc1cc(O)c2c(c1)oc(=O)c1c3cc(O)c(O)cc3oc21 [wedelolactone]
Difference (mg) between left and right ear ([1]; 12.5 mg/kg i.p.): 11.3 ± 3.6 mg | Difference (mg) between left and right ear ([1]; 25 mg/kg i.p.): 10.9 ± 4.6 mg | Inhibition of mice ear inflammation caused by dimethylbenzene ([1]; 12.5 and 25 mg/kg i.p.): could inhibit the inflammation of the mice ear caused by dimethylbenzene | Primary inflammation of the left foot and secondary inflammation of the right foot (FIG. 4) ([2]; 0.25 mg/kg): prone to be alleviated | Left front paw thickness, Day 5 ([2]; 0.25 mg/kg i.p.): 4.20 ± 0.11 mm | Right front paw thickness, Day 5 ([2]; 0.25 mg/kg i.p.): 4.13 ± 0.15 mm | Right hind paw thickness, Day 5 ([2]; 0.25 mg/kg i.p.): 5.05 ± 0.24 mm | Right hind paw volume, Day 5 ([2]; 0.25 mg/kg i.p.): 1.18 ± 0.05 mL | Left hind paw thickness, Day 5 ([2]; 0.25 mg/kg i.p.): 7.10 ± 0.83 mm | Left hind paw volume, Day 5 ([2]; 0.25 mg/kg i.p.): 1.85 ± 0.24 mL | Left front paw thickness, Day 10 ([2]; 0.25 mg/kg i.p.): 4.71 ± 0.24 mm | Right front paw thickness, Day 10 ([2]; 0.25 mg/kg i.p.): 4.66 ± 0.09 mm | Right hind paw thickness, Day 10 ([2]; 0.25 mg/kg i.p.): 5.28 ± 0.38 mm | Right hind paw volume, Day 10 ([2]; 0.25 mg/kg i.p.): 1.16 ± 0.08 mL | Left hind paw thickness, Day 10 ([2]; 0.25 mg/kg i.p.): 8.18 ± 1.22 mm | Left hind paw volume, Day 10 ([2]; 0.25 mg/kg i.p.): 2.38 ± 0.30 mL | Left front paw thickness, Day 15 ([2]; 0.25 mg/kg i.p.): 4.61 ± 0.10 mm | Right front paw thickness, Day 15 ([2]; 0.25 mg/kg i.p.): 4.54 ± 0.15 mm | Right hind paw thickness, Day 15 ([2]; 0.25 mg/kg i.p.): 5.15 ± 0.35 mm | Right hind paw volume, Day 15 ([2]; 0.25 mg/kg i.p.): 1.29 ± 0.13 mL | Left hind paw thickness, Day 15 ([2]; 0.25 mg/kg i.p.): 8.51 ± 0.91 mm | Left hind paw volume, Day 15 ([2]; 0.25 mg/kg i.p.): 2.63 ± 0.37 mL | Left front paw thickness, Day 19 ([2]; 0.25 mg/kg i.p.): 4.64 ± 0.17 mm | Right front paw thickness, Day 19 ([2]; 0.25 mg/kg i.p.): 4.59 ± 0.15 mm | Right hind paw thickness, Day 19 ([2]; 0.25 mg/kg i.p.): 5.23 ± 0.23 mm | Right hind paw volume, Day 19 ([2]; 0.25 mg/kg i.p.): 1.36 ± 0.12 mL | Left hind paw thickness, Day 19 ([2]; 0.25 mg/kg i.p.): 8.49 ± 1.06 mm | Left hind paw volume, Day 19 ([2]; 0.25 mg/kg i.p.): 2.61 ± 0.42 mL | Primary inflammation of the left foot and secondary inflammation of the right foot (FIG. 3) ([2]; 12.5 mg/kg): alleviated | Left front paw thickness, Day 5 ([2]; 12.5 mg/kg i.p.): 4.11 ± 0.11 mm | Right front paw thickness, Day 5 ([2]; 12.5 mg/kg i.p.): 4.01 ± 0.17 mm | Right hind paw thickness, Day 5 ([2]; 12.5 mg/kg i.p.): 4.95 ± 0.27 mm | Right hind paw volume, Day 5 ([2]; 12.5 mg/kg i.p.): 1.10 ± 0.10 mL | Left hind paw thickness, Day 5 ([2]; 12.5 mg/kg i.p.): 7.13 ± 0.96 mm | Left hind paw volume, Day 5 ([2]; 12.5 mg/kg i.p.): 1.64 ± 0.31 mL | Left front paw thickness, Day 10 ([2]; 12.5 mg/kg i.p.): 4.03 ± 0.13 mm | Right front paw thickness, Day 10 ([2]; 12.5 mg/kg i.p.): 3.95 ± 0.12 mm | Right hind paw thickness, Day 10 ([2]; 12.5 mg/kg i.p.): 5.05 ± 0.25 mm | Right hind paw volume, Day 10 ([2]; 12.5 mg/kg i.p.): 1.03 ± 0.10 mL | Left hind paw thickness, Day 10 ([2]; 12.5 mg/kg i.p.): 8.09 ± 1.05 mm | Left hind paw volume, Day 10 ([2]; 12.5 mg/kg i.p.): 2.14 ± 0.45 mL | Left front paw thickness, Day 15 ([2]; 12.5 mg/kg i.p.): 4.11 ± 0.16 mm | Right front paw thickness, Day 15 ([2]; 12.5 mg/kg i.p.): 4.11 ± 0.16 mm | Right hind paw thickness, Day 15 ([2]; 12.5 mg/kg i.p.): 5.20 ± 0.23 mm | Right hind paw volume, Day 15 ([2]; 12.5 mg/kg i.p.): 1.24 ± 0.16 mL | Left hind paw thickness, Day 15 ([2]; 12.5 mg/kg i.p.): 8.44 ± 1.63 mm | Left hind paw volume, Day 15 ([2]; 12.5 mg/kg i.p.): 2.42 ± 0.62 mL | Left front paw thickness, Day 19 ([2]; 12.5 mg/kg i.p.): 4.04 ± 0.14 mm | Right front paw thickness, Day 19 ([2]; 12.5 mg/kg i.p.): 4.04 ± 0.07 mm | Right hind paw thickness, Day 19 ([2]; 12.5 mg/kg i.p.): 4.98 ± 0.10 mm | Right hind paw volume, Day 19 ([2]; 12.5 mg/kg i.p.): 1.19 ± 0.08 mL | Left hind paw thickness, Day 19 ([2]; 12.5 mg/kg i.p.): 8.53 ± 1.33 mm | Left hind paw volume, Day 19 ([2]; 12.5 mg/kg i.p.): 2.46 ± 0.75 mL | Inhibition of rat adjuvant arthritis ([2]; 0.25 or 12.5 mg/kg i.p., 19 days): could effectively inhibit rat adjuvant arthritis | inflammation score, Day 10 ([3]; 6 mg/kg i.p.): 4.00 ± 2.02 | Joint surface temperature difference (° C.), Day 10 ([3]; 6 mg/kg i.p.): 1.42 ± 0.74 °C | inflammation score, Day 20 ([3]; 6 mg/kg i.p.): 3.10 ± 1.45 | Joint surface temperature difference (° C.), Day 20 ([3]; 6 mg/kg i.p.): 0.83 ± 0.44 °C | inflammation score, Day 30 ([3]; 6 mg/kg i.p.): 2.7 ± 1.35 | Joint surface temperature difference (° C.), Day 30 ([3]; 6 mg/kg i.p.): 0.72 ± 0.40 °C | inflammation score, Day 10 ([3]; 12 mg/kg i.p.): 4.10 ± 2.08 | Joint surface temperature difference (° C.), Day 10 ([3]; 12 mg/kg i.p.): 1.36 ± 0.50 °C | inflammation score, Day 20 ([3]; 12 mg/kg i.p.): 2.00 ± 1.41 | Joint surface temperature difference (° C.), Day 20 ([3]; 12 mg/kg i.p.): 0.73 ± 0.45 °C | inflammation score, Day 30 ([3]; 12 mg/kg i.p.): 1.40 ± 1.02 | Joint surface temperature difference (° C.), Day 30 ([3]; 12 mg/kg i.p.): 0.48 ± 0.39 °C | Inhibition of collagen-induced rat arthritis ([3]; 6 or 12 mg/kg i.p., 3 weeks): can effectively inhibit the collagen-induced rat arthritis | Increased thickness of the right ear (mm) ([4]; 6 mg/kg i.p.): 0.231 ± 0.113 mm | Increased thickness of the right ear (mm) ([4]; 12 mg/kg i.p.): 0.194 ± 0.115 mm

Reference: US20070129426A1, “Therapeutic drugs for arthritis” (Shanghai Ambrosia Pharmaceutical Co., Ltd., priority 2003, published 2007)
